Measured values from US20070128217A1 (priority 2003, published 2007).

Assays:
[1] = system: antibodies in sera from SARS patients (sera 1a, 1b, 2, 6, 37, 62, London, SARS-yellow, SARS-green); format: binding, human; set-up: Binding of serum 6 to linear peptides of protein X1 of SARS-CoV Urbani / Binding of serum 37 to linear peptides of protein X1 of SARS-CoV Urbani / Binding of serum 6 to looped/cyclic peptide (PEPSCAN-ELISA) / Binding of serum 37 to looped/cyclic peptide (PEPSCAN-ELISA) / Binding of serum 37 to looped/cyclic peptides of protein X1 of SARS-CoV Urbani / Binding of serum 6 to linear peptides of protein X2 / Binding of serum 37 to linear peptides of protein X2 / Binding of serum 37 to looped/cyclic peptides of protein X2 of SARS-CoV Urbani / Binding of serum 6 to linear peptides of protein M of SARS-CoV Urbani / Binding of serum 37 to linear peptides of protein M of SARS-CoV Urbani / Binding of serum 6 to looped/cyclic peptides of protein M of SARS-CoV Urbani / Binding of serum 37 to looped/cyclic peptides of protein M of SARS-CoV Urbani / Binding of serum 6 to linear peptides of protein X3 of SARS-CoV Urbani / Binding of serum 37 to linear peptides of protein X3 of SARS-CoV Urbani / Binding of serum 37 to looped/cyclic peptides of protein X3 of SARS-CoV Urbani / Binding of serum 6 to linear peptides of protein X4 of SARS-CoV Urbani / Binding of serum 37 to linear peptides of protein X4 of SARS-CoV Urbani / Binding of serum 37 to looped/cyclic peptides of protein X4 of SARS-CoV Urbani / Binding of serum 6 to linear peptides of protein X5 of SARS-CoV Urbani / Binding of serum 37 to linear peptides of protein X5 of SARS-CoV Urbani / Binding of serum 37 to looped/cyclic peptides of protein X5 of SARS-CoV Urbani / Binding of serum 6 to linear peptides of protein N of SARS-CoV Urbani / Binding of serum 37 to linear peptides of protein N of SARS-CoV Urbani / Binding of serum 6 to linear peptide (PEPSCAN-ELISA) / Binding of serum 1a to looped/cyclic peptides of protein N of SARS-CoV Urbani / Binding of serum 1b to looped/cyclic peptides of protein N of SARS-CoV Urbani / Binding of serum 2 to looped/cyclic peptides of protein N of SARS-CoV Urbani / Binding of serum 6 to looped/cyclic peptides of protein N of SARS-CoV Urbani / Binding of serum 37 to looped/cyclic peptides of protein N of SARS-CoV Urbani / Binding of serum 62 to looped/cyclic peptides of protein N of SARS-CoV Urbani / Binding of serum London to looped/cyclic peptides of protein N of SARS-CoV Urbani / Binding of serum SARS-green to looped/cyclic peptides of protein N of SARS-CoV Urbani: unit not given here
[2] = system: control sera (pooled serum of ten healthy LUMC hospital workers; commercial negative donor pooled serum from the Dutch bloodbank); format: binding, human; set-up: Binding of Control serum LUMC to linear peptides / Binding of Control serum Blood-bank to linear peptides / Binding of Control serum LUMC to looped peptides / Binding of Control Serum Blood-Bank to Looped peptides / Binding of Control serum LUMC to linear peptides of the protein M of SARS-CoV Urbani / Binding of Control serum Blood-bank to linear peptides of the protein M of SARS-CoV Urbani / Binding of Control serum LUMC to looped peptides of the protein M of SARS-CoV Urbani / Binding of Control Serum Blood-Bank to Looped peptides of the protein M of SARS-CoV Urbani: unit not given here
[3] = system: rabbit serum obtained by immunizing a rabbit with the SARS-CoV strain Frankfurt 1; format: binding; set-up: Binding of a rabbit serum to linear peptides / Binding of a rabbit serum to looped peptides / Rabbit serum linear peptides / Rabbit serum looped peptides / Binding of a rabbit serum to linear peptides of protein N of SARS-CoV Urbani (Rabbit serum linear peptides) / Binding of a rabbit serum to looped/cyclic peptides of protein N of SARS-CoV Urbani (Rabbit serum looped peptides): unit not given here

ATIPLQASLPFGWLV
0.8: Binding of Control serum Blood-bank to linear peptides [2]
0.6: Binding of serum 1a to looped/cyclic peptide (PEPSCAN-ELISA) [1] | Binding of serum 2 to linear peptides of protein X1 of SARS-CoV Urbani [1] | Binding of serum 2 to looped/cyclic peptide (PEPSCAN-ELISA) [1] | Binding of serum 6 to linear peptides of protein X1 of SARS-CoV Urbani [1]
0.5: Binding of serum 1b to linear peptides of protein X1 of SARS-CoV Urbani [1] | Binding of serum 1b to looped/cyclic peptide (PEPSCAN-ELISA) [1] | Binding of Control serum LUMC to linear peptides [2] | Binding of a rabbit serum to looped peptides [3]
0.7: Binding of serum 1a to linear peptides of protein X1 of SARS-CoV Urbani [1] | Binding of serum 37 to linear peptides of protein X1 of SARS-CoV Urbani [1] | Binding of serum 37 to looped/cyclic peptide (PEPSCAN-ELISA) [1] | Binding of serum 62 to linear peptides of protein X1 of SARS-CoV Urbani [1] | Binding of serum 62 to looped/cyclic peptide (PEPSCAN-ELISA) [1] | Binding of Control Serum Blood-Bank to Looped peptides [2] | Binding of Control serum LUMC to looped peptides [2]
0.4: Binding of serum 6 to looped/cyclic peptide (PEPSCAN-ELISA) [1] | Binding of serum SARS-green to looped/cyclic peptide (PEPSCAN-ELISA) [1]
0.2: Binding of serum SARS-green to linear peptides of protein X1 of SARS-CoV Urbani [1]
0.3: Binding of serum London to linear peptides of protein X1 of SARS-CoV Urbani [1] | Binding of serum London to looped/cyclic peptide (PEPSCAN-ELISA) [1] | Binding of serum SARS-yellow to linear peptides of protein X1 of SARS-CoV Urbani [1] | Binding of serum SARS-yellow to looped/cyclic peptide (PEPSCAN-ELISA) [1]
0.1: Binding of a rabbit serum to linear peptides [3]

ATSRTLSYYKLGASQ
0.5: Binding of serum 1b to linear peptides of protein M of SARS-CoV Urbani [1] | Binding of serum 62 to looped/cyclic peptides of protein M of SARS-CoV Urbani [1]
0.7: Binding of serum 1a to linear peptides of protein M of SARS-CoV Urbani [1] | Binding of serum 2 to linear peptides of protein M of SARS-CoV Urbani [1] | Binding of serum 62 to linear peptides of protein M of SARS-CoV Urbani [1] | Binding of serum SARS-yellow to looped/cyclic peptides of protein M of SARS-CoV Urbani [1] | Binding of Control serum Blood-bank to linear peptides of the protein M of SARS-CoV Urbani [2]
0.4: Rabbit serum looped peptides [3]
0.2: Binding of serum 1b to looped/cyclic peptides of protein M of SARS-CoV Urbani [1] | Binding of serum SARS-green to linear peptides of protein M of SARS-CoV Urbani [1]
0.6: Binding of serum 2 to looped/cyclic peptides of protein M of SARS-CoV Urbani [1] | Binding of serum 37 to looped/cyclic peptides of protein M of SARS-CoV Urbani [1] | Binding of Control Serum Blood-Bank to Looped peptides of the protein M of SARS-CoV Urbani [2] | Binding of Control serum LUMC to looped peptides of the protein M of SARS-CoV Urbani [2] | Rabbit serum linear peptides [3]
0.1: Binding of serum SARS-yellow to linear peptides of protein M of SARS-CoV Urbani [1]
0.8: Binding of serum 1a to looped/cyclic peptides of protein M of SARS-CoV Urbani [1] | Binding of serum 6 to looped/cyclic peptides of protein M of SARS-CoV Urbani [1] | Binding of serum 37 to linear peptides of protein M of SARS-CoV Urbani [1]
0.3: Binding of serum 6 to linear peptides of protein M of SARS-CoV Urbani [1] | Binding of serum London to linear peptides of protein M of SARS-CoV Urbani [1] | Binding of serum London to looped/cyclic peptides of protein M of SARS-CoV Urbani [1] | Binding of serum SARS-green to looped/cyclic peptides of protein M of SARS-CoV Urbani [1] | Binding of Control serum LUMC to linear peptides of the protein M of SARS-CoV Urbani [2]
